3 compounds from patent US20130216614A1, “IMMUNOGENIC COMPOSITIONS AND METHODS FOR TREATING NUEROLOGIC DISORDERS” (Glaxosmithkline Biologicals S.A., priority 2010, published 2013) can be followed below.

One test deals with monomeric Aβ. Briefly: Immunoblot of monomeric Aβ in brain protein fractions. Conditions: anti Aβ1-16 antibody, vs PBS. The class given is in vivo, mice. How it is done:
Proteins from hemi-forebrains were extracted using a modified method of the procedure published by Lesné et al (Lesne et al., 2006). All manipulations were done on ice to minimize protein degradation. One hemi-forebrain was placed in a 1 ml syringe with a 20 G needle. 500 l of buffer A (50 mM Tris-HCl pH 7.6, 0.01% NP-40, 150 mM NaCl, 2 mM EDTA, 0.1% SDS, 1 mM phenylmethylsulfonyl fluoride (PMSF), protease inhibitor cocktail) were added and 10 up and down were made to homogenize the tissue, followed by a 5 minutes centrifugation at 3 000 RPM at 4° C. The supernatant (extracellular proteins enriched fraction) was then collected and frozen at −80° C. […] Protein concentration of each fraction was determined using the Quantipro BCA assay kit (Sigma) according to the manufacturer protocol.
For total Aβ detection, 10-30 μg of extracellular, cytoplasmic and membrane protein fractions were separated on a precast 10-20% SDS polyacrylamide Tris-Tricine gel (Bio-Rad). Separated proteins were then transferred onto polyvinylidene fluoride (PVDF) membranes (PerkinElmer Life and Analytical Sciences) and detected by Western blotting. […]
Quantification was done by determining integrative density of the bands using a gel imaging system (scanner Agfa Arcus II; NIHImage J software version 1.32j) and background values were removed. […] Results are expressed as mean±SEM. […]

The next test relates to TLR2 mRNA. Briefly: In situ hybridization of TLR2 transcript in brain after peripheral injection. The class given is in vivo, C57BL/6J mice. The note with it: 24 hr after single i.p. injection; CRX compounds 20 μg/mouse, 3D MPL 50 μg/mouse. From the text:
In order to evaluate the innate activation within the brain, we have performed in situ hybridization 24 hr following the systemic injection of either 3D MPL, CRX524 or CRX527 or CRX601 using the intra peritoneal route.
Specifically GSK Bio injected different compositions in C57BL/6J mice for evaluating the potency of those adjuvants after 24 hrs of peripheral injection to trigger microglial cell activation in the brain. Animal study groups were:
GSK Bio performed the injections in C57BL6 mice at the Centre de biologie expérimentale de I'INRS-IAF under an IACUC approved protocol. Twenty four hours after the injections, mice were deeply anesthetized via an intraperitoneal injection of a mixture of ketamine hydrochloride and xylazine and then perfused intracardially with ice-cold 0.9% saline, followed by 4% paraformaldehyde (PFA) in a 0.1 M borax buffer, pH 9.5, at 4° C. Brains were rapidly removed from skulls, postfixed in PFA 1-3 d at 4° C. and sent to the CHUL. They were then cryoprotected in 10% sucrose diluted in PFA overnight. The frozen brains were sectioned into 25-μm-thick coronal sections using a microtome (Reichert-Jung, Cambridge Instruments Company), and slices were collected in a cold cryoprotectant solution (0.05 M sodium phosphate buffer, pH 7.3, 30% ethylene glycol, and 20% glycerol, stored at −20° C.).
Every 12th section of brain slices, starting from the end of the olfactory bulb to the end of the cerebral cortex, was mounted on Colorfrost/Plus microscope slides (Fisher Scientific). In situ hybridization histochemical localization of TLR2 transcript was performed using ^35S-labeled cRNA probe. […]
Dual labeling combining immunocytochemistry and in situ hybridization was performed as described previously (Laflamme and Rivest, 2001; Nadeau and Rivest, 2000 infra) to localize TLR2 transcripts in microglia (iba-1 staining). […] The images depicted by the different panels are representative of the signal detected on the slides for each group of mice.

In the case of “3-O-desacyl-4′-monophosphoryl lipid A [3D MPL]”, the “monomeric Aβ in extra-cellular enriched fractions from brains” value with monomeric Aβ is listed as “reduction”. Besides, the “TLR2 mRNA activation in ventricular regions and choroid plexus” value (shortened to “TLR2 mRNA activation”) in the test with TLR2 mRNA is on record as “lesser extent”.
On to `CCCCCCCCCCC[C@H](CC(=O)N[C@H]1[C@H](OC[C@H](NC(=O)C[C@@H](CCCCCCCCCCC)OC(=O)CCCCCCCCC)C(=O)O)O[C@H](CO)[C@@H](OP(=O)(O)O)[C@@H]1OC(=O)C[C@@H](CCCCCCCCCCC)OC(=O)CCCCCCCCC)OC(=O)CCCCCCCCC` [CRX527], for which the “TLR2 mRNA activation” value in the test on TLR2 mRNA is “clearly activated”.
In the case of `CCCCCCCCCCC[C@H](CC(=O)N[C@H]1[C@H](OC[C@H](NC(=O)C[C@@H](CCCCCCCCCCC)OCCCCCCCCCC)C(=O)O)O[C@H](CO)[C@@H](OP(=O)(O)O)[C@@H]1OC(=O)C[C@@H](CCCCCCCCCCC)OCCCCCCCCCC)OCCCCCCCCCC` [CRX601], in the test on TLR2 mRNA, the “TLR2 mRNA activation” value was “clearly activated”.
